Data on seven molecules can be found in the supplement of paper PMC11061612.

Experiment in all cases: Bliss excess, mean over the matrix (fraction); higher = more synergy
The test system of experiment [1] is PANC-08-13 (Pancreatic Carcinoma). In short, it runs like this:
(§1)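 Bliss excess equals the observed combination effect minus the expected value EA + EB − EA·EB, where EA and EB are the effects of each agent alone. Combination Emax is the second-highest inhibition within the matrix. Inhibition was scaled from CellTiter-Glo 2.0 luminescence, with 0 set by vehicle wells and 1 by blank wells, after 72 hours of two-drug dosing of cells plated in 1536-well plates.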

A further experiment has as its system MEL-JUSO (Melanoma). In short, it runs like this: as §1
The subject of experiment [2] is DND-41 (T-Lymphoblastic Leukemia). In short, it runs like this: as §1
For another experiment, the system named is WIL2-NS (Non-Cancerous). An outline of the steps:
as §1

The subject of experiment [3] is MKN28 (Gastric Carcinoma). In short, it runs like this: as §1
The test system of experiment [4] is NCI-H847 (Small Cell Lung Carcinoma). In short, it runs like this: as §1
Experiment [5] has as its system KM12 (Colorectal Carcinoma). An outline of the steps:
as §1

For a further experiment, the system named is TC-71 (Ewing's Sarcoma). An outline of the steps: as §1
The subject of experiment [6] is COLO-678 (Colorectal Carcinoma). In short, it runs like this:
as §1

The subject of experiment [7] is KYSE-180 (Esophageal Squamous Cell Carcinoma). In short, it runs like this:
as §1

Experiment [8] relates to TOV-112D (Ovarian Carcinoma). An outline of the steps: as §1
In experiment [9] the test system is DiFi (Colorectal Carcinoma). An outline of the steps:
as §1

Experiment [10] has as its system NCI-H1792 (Lung Adenocarcinoma). In short, it runs like this: as §1
Experiment [11] has as its system TE-6 (Esophageal Squamous Cell Carcinoma). An outline of the steps: as §1
Experiment [12] relates to SW1417 (Colorectal Carcinoma). An outline of the steps:
as §1

Experiment [13] relates to CAMA-1 (Breast Carcinoma). In short, it runs like this: as §1
Another experiment concerns LN-18 (Glioblastoma). An outline of the steps: as §1
In experiment [14] the test system is MFM-223 (Breast Carcinoma). In short, it runs like this: as §1
The next experiment relates to CHP-212 (Neuroblastoma). An outline of the steps:
as §1

Experiment [15] has as its system BL-41 (Burkitt's Lymphoma). An outline of the steps:
as §1

`CCN(CCO)CCCOc1ccc2c(Nc3cc(CC(=O)Nc4cccc(F)c4)[nH]n3)ncnc2c1` [AZD2811] + C[C@@H]1COCCN1C2=NC(=NC(=C2)C3(CC3)[S@](=N)(=O)C)C4=C5C=CNC5=NC=C4 [AZD6738] (first compound max 1 µM, 7x7, partner max 10 µM): the Bliss excess in experiment [1] was -0.0312; with MEL-JUSO (Melanoma) it was -0.0644; in [2] it was -0.018; in the experiment on WIL2-NS (Non-Cancerous), 0.0036; in [3] it was -0.0513; in experiment [4], -0.0089. Besides, the Bliss excess in experiment [5] was -0.0709; with TC-71 (Ewing's Sarcoma), -0.0335; in experiment [6], -0.0034; in experiment [7], -0.0184; in [8] it was 0.0433; in experiment [9], -0.0331. Moreover, the Bliss excess in experiment [10] is -0.0577; in [11], -0.0175; in experiment [12], -0.0709; in experiment [13], -0.0417; in the experiment on LN-18 (Glioblastoma), -0.0151; in experiment [14], -0.0251. Moreover, the figures for the Bliss excess (in the experiment with CHP-212 (Neuroblastoma); in experiment [15]) were -0.0822 and -0.0647, respectively.

`Cc1cc2ncnn2cc1Nc1ncc2c(n1)n(C1CCOCC1)c(=O)n2C` [AZD7648] + CN(C)CCCOc1ccc(-c2ccc3ncc4c(c3c2)n(C2CCOCC2)c(=O)n4C)cn1 [AZD0156] (first compound max 10 µM, 7x7, partner max 1 µM): the Bliss excess in experiment [1] is -0.0359; with MEL-JUSO (Melanoma), -0.0029; in [2], 0.0251; in the experiment with WIL2-NS (Non-Cancerous), -0.0264; in experiment [3], -0.0127; in experiment [4], -0.0113. The Bliss excess is 0.0312 in experiment [5]; 0.0438 with TC-71 (Ewing's Sarcoma); -0.0231 in experiment [6]; 0.0126 in experiment [7]; 0.0307 in experiment [8]; -0.0119 in experiment [9]. In addition, the Bliss excess in [10] is 0.0149; in [11], -0.0515; in [12], -0.0262; in experiment [13] it was -0.0238; with LN-18 (Glioblastoma), 0.0013; in experiment [14], -0.0325. Further, the Bliss excess in the experiment on CHP-212 (Neuroblastoma) amounted to 0.0036; in experiment [15], 0.0154.

For `CN(CCO)CC[C@H](CSc1ccccc1)Nc1ccc(S(=O)(=O)NC(=O)c2ccc(N3CCC([C@@H](O)c4ccccc4-c4ccc(Cl)cc4)CC3)cc2)cc1S(=O)(=O)C(F)(F)F` [AZD4320] + Cc1cc2ncnn2cc1Nc1ncc2c(n1)n(C1CCOCC1)c(=O)n2C [AZD7648] (first compound max 1 µM, 7x7, partner max 10 µM), the Bliss excess in [1] is -0.042; in the experiment on MEL-JUSO (Melanoma), -0.0065; in experiment [2], -0.0011; with WIL2-NS (Non-Cancerous), -0.029; in experiment [3], -0.036; in [4] it was 0.0478. For the same molecule, the Bliss excess in experiment [5] was -0.0234; in the experiment on TC-71 (Ewing's Sarcoma) it was -0.0201; in [6], -0.0684; in [7], -0.0091; in experiment [8], -0.019; in experiment [9] it was -0.0203. Moreover, the Bliss excess in [10] is -0.024; in [11], -0.0059; in [12], -0.0426; in experiment [13], -0.0031; with LN-18 (Glioblastoma) it was 0.0064; in experiment [14], -0.0229. The results for the Bliss excess (in the experiment with CHP-212 (Neuroblastoma); in experiment [15]) were -0.0441 and 0.0115, respectively.

In the case of `CN(C)CCCOc1ccc(-c2ccc3ncc4c(c3c2)n(C2CCOCC2)c(=O)n4C)cn1` [AZD0156] + C[C@@H]1COCCN1C2=NC(=NC(=C2)C3(CC3)[S@](=N)(=O)C)C4=C5C=CNC5=NC=C4 [AZD6738] (first compound max 1 µM, 7x7, partner max 10 µM), the Bliss excess is -0.0376 in [1]; 0.0108 in the experiment with MEL-JUSO (Melanoma); -0.0034 in experiment [2]; 0.0131 in the experiment with WIL2-NS (Non-Cancerous); -0.0092 in experiment [3]; -0.0116 in [4]. Further, the Bliss excess in experiment [5] was 0.0161; in the experiment with TC-71 (Ewing's Sarcoma), 0.069; in experiment [6], -0.0169; in [7] it was 0.0762; in experiment [8], 0.0136; in experiment [9] it was 0.0174. Further, the Bliss excess is 0.0254 in experiment [10]; 0.0225 in experiment [11]; -0.0019 in experiment [12]; -0.0444 in experiment [13]; 0.0505 with LN-18 (Glioblastoma); 0.0432 in experiment [14]. Besides, the Bliss excess is -0.0047 in the experiment on CHP-212 (Neuroblastoma) and 0.0704 in experiment [15].

Turning to `Cc1c2c(nn1C)CSCc1cc(n(C)n1)CSc1cc(c3ccccc3c1)OCCCc1c(C(=O)O)n(C)c3c-2c(Cl)ccc13` [AZD5991] + C[C@@H]1COCCN1C2=NC(=NC(=C2)C3(CC3)[S@](=N)(=O)C)C4=C5C=CNC5=NC=C4 [AZD6738] (first compound max 1 µM, 7x7, partner max 10 µM), the Bliss excess in experiment [1] is 0.0337; with MEL-JUSO (Melanoma) it was 0.0406; in experiment [2], 0.0215; in the experiment with WIL2-NS (Non-Cancerous), -0.0025; in experiment [3], 0.0118; in experiment [4], 0.0145. The Bliss excess was 0.0321 in [5]; 0.0554 in the experiment on TC-71 (Ewing's Sarcoma); -0.0899 in experiment [6]; 0.0821 in experiment [7]; 0.0477 in experiment [8]; 0.0302 in experiment [9]. Besides, the Bliss excess in experiment [10] is 0.0332; in experiment [11] it was 0.0298; in experiment [12], -0.0352; in [13], 0.0332; in the experiment with LN-18 (Glioblastoma) it was 0.037; in experiment [14], 0.0601. The Bliss excess in the experiment with CHP-212 (Neuroblastoma) is 0.0122; in [15], -0.0045.

Regarding `Cc1c2c(nn1C)CSCc1cc(n(C)n1)CSc1cc(c3ccccc3c1)OCCCc1c(C(=O)O)n(C)c3c-2c(Cl)ccc13` [AZD5991] + CN(C)CCCOc1ccc(-c2ccc3ncc4c(c3c2)n(C2CCOCC2)c(=O)n4C)cn1 [AZD0156] (first compound max 1 µM, 7x7, partner max 1 µM), the Bliss excess in experiment [1] is -0.0158; in the experiment with MEL-JUSO (Melanoma), 0.0023; in experiment [2], 0.0195; with WIL2-NS (Non-Cancerous), -0.0099; in experiment [3], 0.0021; in [4], -0.0131. Also, the Bliss excess in experiment [5] was -0.0453; with TC-71 (Ewing's Sarcoma), -0.001; in [6], -0.0427; in [7], 0.0286; in experiment [8], -0.0265; in [9], -0.0112. Also, the Bliss excess in experiment [10] is 0.0004; in [11], -0.0167; in experiment [12], 0.0308; in experiment [13] it was 0.002; in the experiment with LN-18 (Glioblastoma), 0.0444; in [14], -0.0038. Further, the Bliss excess was -0.0538 in the experiment on CHP-212 (Neuroblastoma) and 0.0168 in experiment [15].

Turning to `Cc1cc2ncnn2cc1Nc1ncc2c(n1)n(C1CCOCC1)c(=O)n2C` [AZD7648] + CCN(CCO)CCCOc1ccc2c(Nc3cc(CC(=O)Nc4cccc(F)c4)[nH]n3)ncnc2c1 [AZD2811] (first compound max 10 µM, 7x7, partner max 1 µM), the Bliss excess in experiment [1] is 0.0006; in the experiment with MEL-JUSO (Melanoma), 0.0461; in experiment [2], 0.0308; in the experiment with WIL2-NS (Non-Cancerous), 0.0024; in [3] it was 0.0124; in [4], -0.0211. The Bliss excess is 0.004 in experiment [5]; -0.0301 in the experiment on TC-71 (Ewing's Sarcoma); -0.0119 in experiment [6]; 0.0029 in experiment [7]; 0.0263 in experiment [8]; 0.005 in [9]. Further, the Bliss excess in experiment [10] is 0.0321; in [11], 0.0257; in experiment [12], -0.106; in experiment [13], -0.0677; in the experiment on LN-18 (Glioblastoma), 0.0208; in experiment [14], 0.0257. Moreover, the Bliss excess was -0.0162 with CHP-212 (Neuroblastoma) and 0.0668 in experiment [15].
